Experimental findings from US7803801B2, “Aminopyridine compounds having Syk inhibitory activity” (Japan Tobacco, Inc., priority 2005, dated 2010) are described below.

Molecules are shown by their SMILES.

The first assay concerns the target GST-Syk Full Protein (human) (Homo sapiens, UniProt P43405). The assay can be described thus: Syk kinase inhibition test (HTRF method). It counts as biochemical. The note with it: HTRF, 100 μM ATP, 30 min room temperature, average; read-out: sykHTRF ave IC50. Here is the method:
Syk Kinase Inhibition Test (HTRF Method)
After the compounds were serially diluted with dimethylsulfoxide (DMSO), 10 μL of those 10-fold diluted with kinase buffer (20 mM HEPES pH 7.0, 10 mM MgCl2, 50 mM NaCl, 1 mM 2-ME, 0.05% BSA) was added to opti-plate HTRF-96 (Packard) (final DMSO concentration: 2%). 20 μL of a substrate solution (kinase buffer as mentioned above containing Syk Specific-Peptide Substrate Biot-EDPDYEWPSA-NH2 (Peptide Laboratory) 625 nM, 250 μM ATP (SIGMA) was added (final substrate concentration 250 nM, 100 μM ATP), and further 20 μL of an enzyme solution (kinase buffer as mentioned above containing GST-Syk Full Protein (human) 16 nM) (final concentration 6.4 nM) was added and the mixture was immediately stirred with a plate shaker to start enzyme reaction. After reacted at room temperature (20 to 25° C.) for 30 minutes, the enzyme reaction was terminated by adding 100 μL/well of a buffer for terminating and detecting the reaction (30 mM HEPES pH 7.0, 150 mM KF, 0.15% BSA, 0.075% Tween-20, 75 mM EDTA) containing HTRF reagent (5 μg/ml XL665-Streptavidin (CIS bio), 170 ng/ml Eu(K)-anti-PhosphoTyrosin, PT-66 (CIS bio)) (final concentration 20 mM HEPES pH 7.0, 100 mM KF, 0.1% BSA, 0.05% Tween-20, 50 mM EDTA). After allowed to stand still at room temperature for 1 hour, inhibitory effect of a compound against Syk kinase enzymatic activity was evaluated by measuring 665/620 fluorescence ratio to excitation light at 337 nm by ARVO (Wallac).
Background: TR-FRET usually uses a lanthanide donor and a delayed reading to cut background.
As usually defined, the IC50 is the point on the concentration scale where inhibition reaches its midpoint. Turning to `Cc1ccnc(Nc2cccc(-c3cnc(N4CCC(C(C)(C)C(=O)O)CC4)s3)n2)c1` [Compound A-18, 2-methyl-2-(1-{5-[6-(4-methylpyridin-2-ylamino)pyridin-2-yl]thiazol-2-yl}piperidin-4-yl)propionic acid], the IC50 is under 0.1 µM.
On the same count and under the same terms, then `Cc1ccnc(Nc2cccc(-c3cnc([C@@H](N)CCCCN)s3)n2)c1` [Compound A-63], with 0.1 to 1 µM.
As for `Cc1ccnc(Nc2cccc(-c3cnc([C@H](Cc4ccc(OCc5ccccc5)cc4)NC(=O)OC(C)(C)C)s3)n2)c1` [Compound A-85], the IC50 was over 1 µM.
On the same count and under the same terms, then `Cc1ccnc(Nc2cccc(-c3cnc([C@H](CCC(=O)OCc4ccccc4)NC(=O)OC(C)(C)C)s3)n2)c1` [Compound A-96], with over 1 µM; and `CCOC(=O)c1nc([C@H](C)NC(=O)OC(C)(C)C)sc1-c1cccc(Nc2cc(C)ccn2)n1` [Compound A-100], with over 1 µM; and `CC(=O)N[C@@H](C)c1nc(C(=O)O)c(-c2cccc(Nc3cc(C)ccn3)n2)s1` [Compound A-109], with over 1 µM.
On to `CNC(=O)c1nc([C@H](C)NC(C)=O)sc1-c1cccc(Nc2cc(C)ccn2)n1` [Compound A-118], for which the 50% inhibitory concentration (IC50) was over 1 µM.
Consider `CON(C)C(=O)c1nc([C@H](C)NC(C)=O)sc1-c1cccc(Nc2cc(C)ccn2)n1` [Compound A-125], for which the IC50 is over 1 µM.
Turning to `Cc1ccnc(Nc2cccc(-c3cnc(CCc4ccc(OCc5ccccc5)cc4)s3)n2)c1` [Compound A-133], the half-maximal inhibitory concentration (IC50) is over 1 µM.
In the case of `COC(=O)c1ccc(CCc2ncc(-c3cccc(Nc4cc(C)ccn4)n3)s2)cc1` [Compound A-149], the half-maximal inhibitory concentration (IC50) is over 1 µM.
`Cc1ccnc(Nc2cccc(-c3cnc(CCc4cccc(C(=O)N5CCC(O)CC5)c4)s3)n2)c1` [Compound A-281]: the half-maximal inhibitory concentration (IC50) lay in the range of 0.1 to 1 µM.
Regarding `Cc1cccnc1Nc1cccc(-c2cnc([C@H](C)O)s2)n1` [Compound A-327], the IC50 is over 1 µM.
The same measure, in the same setting: then `CCOC(=O)Cc1ccnc(Nc2cccc(-c3cnc([C@H](C)NC(C)=O)s3)n2)c1` [Compound A-329], with 0.1 to 1 µM.

The same assay, now with this note: Tables 1-x, compounds A; read-out: sykHTRF ave IC50.
`Cc1ccnc(Nc2cccc(-c3cnc([C@@H](N)Cc4ccc(O)cc4)s3)n2)c1` [Compound A-389]: the IC50 was 0.1 to 1 µM.
On to `Cc1ccnc(Nc2cccc(-c3cnc(N4CCNCC4)s3)n2)c1` [Compound A-406], for which the IC50 lay in the range of 0.1 to 1 µM.
On to `CCOC(=O)N1CCC(N(C)c2ncc(-c3cccc(Nc4cc(C)ccn4)n3)s2)CC1` [Compound A-445], for which the IC50 was 0.1 to 1 µM.
Take `Cc1ccnc(Nc2cccc(-c3cnc(N(C)C4CCC(C(=O)N(C)C)CC4)s3)n2)c1` (stereo not shown) [Compound A-447]: the 50% inhibitory concentration (IC50) was 0.1 to 1 µM.
Still for that read-out and setting: then `Cc1ccnc(Nc2cccc(-c3cnc(N4CCC(C(=O)N(C)CCO)CC4)s3)n2)c1` [Compound A-448], with 0.1 to 1 µM.
With `Cc1ccnc(Nc2cccc(-c3cnc(N4CCC(C(=O)N(CCO)CCO)CC4)s3)n2)c1` [Compound A-449], the IC50 was in the range of 0.1 to 1 µM.
On to `COCCN(C)C(=O)C1CCN(c2ncc(-c3cccc(Nc4cc(C)ccn4)n3)s2)CC1` [Compound A-451], for which the IC50 is 0.1 to 1 µM.
As for `Cc1ccnc(Nc2cccc(-c3cnc(N4CCC(C(=O)N5CCNC(=O)C5)CC4)s3)n2)c1` [Compound A-453, 4-(1-{5-[6-(4-methylpyridin-2-ylamino)pyridin-2-yl]thiazol-2-yl}piperidine-4-carbonyl)piperazin-2-one], the half-inhibitory concentration (IC50) was under 0.1 µM.
With `Cc1ccnc(Nc2cccc(-c3cnc(N4CCC(C(=O)N5CCOCC5)CC4)s3)n2)c1` [Compound A-454], the IC50 was in the range of 0.1 to 1 µM.
With `Cc1ccnc(Nc2cccc(-c3cnc(N4CCC(C(=O)NC(C)(C)CO)CC4)s3)n2)c1` [Compound A-455], the IC50 is 0.1 to 1 µM.
In the case of `Cc1ccnc(Nc2cccc(-c3cnc(N4CCC(C5=NC(C)(C)CO5)CC4)s3)n2)c1` [Compound A-456], the IC50 was in the range of 0.1 to 1 µM.
On the same count and under the same terms, then `Cc1ccnc(Nc2cccc(-c3cnc(N(C)Cc4ccc(OCc5ccccc5)cc4)s3)n2)c1` [Compound A-462], with 0.1 to 1 µM.
